Results: patent US7691601B2, “Medium for detecting and/or identifying of microorganisms” (priority 2003, dated 2010)

Columns and labels:
[1] = Colonies column read for stool without added strain, castanospermine medium; set-up: key: 0=no coloration; 0.5=trace of coloration; 1=weak coloration; 2=strong coloration; settings: Table 6, no strain
Description: (§1) Seeding of Salmonella bacteria: 10 μl of stools are deposited onto a Petri dish, this stool suspension is mixed or not mixed with 10 μl of a suspension of Salmonella (0.5 McF) and isolated as 3 dials on a Petri dish. Various […] and various Salmonella strains originating from the applicant's collection are used according to this protocol. The Petri dishes are incubated at 37° C. for 24 hours. The appearance of a coloration at the point of deposit of the stool (“deposit” column) and at the Salmonella colony (“colony” column) is read according to a semi-quantitative scale: • 0=no coloration • 0.5=trace of coloration • 1=weak coloration • 2=strong coloration The results obtained are given in Table 1.
(§2) Preparation of the detection medium: 250 ml of the medium of Example 1, in which the O,O-diethyl p-nitrophenyl phosphate is replaced with various concentrations of castanospermine: 0, 1, 2, 4 and 8 g/l, are prepared according to the method of Example 1.
(§3) The various detection media thus obtained are poured into Petri dishes.
(§4) Seeding of Staphylococcus aureus strains: The Petri dishes are inoculated, incubated and read as in Example 1.

[2] = system: Staphylococcus aureus strains; assay: Coloration of Staphylococcus aureus colonies, castanospermine medium; type: cell-based; set-up: key to Colonies coloration: 0=no coloration; 0.5=trace of coloration; 1=weak coloration; 2=strong coloration; settings: for Colonies coloration: Table 6
Description: as §1, §2, §3, §4

[3] = system: free α-glucosidase in a sample (stools); assay: Coloration at the point of deposit of the stool, castanospermine medium; type: biochemical; set-up: key to Deposit coloration: 0=no coloration; 0.5=trace of coloration; 1=weak coloration; 2=strong coloration; settings: for Deposit coloration: Table 6
Description: as §1, §2, §3, §4

[4] = 1 g/l, stool A, Staphylococcus aureus No. 1
[5] = 1 g/l, stool B, Staphylococcus aureus no 2
[6] = 2 g/l, stool A, Staphylococcus aureus No. 1
[7] = 2 g/l, stool B, Staphylococcus aureus no 2
[8] = 4 g/l, stool A, Staphylococcus aureus No. 1
[9] = 4 g/l, stool B, Staphylococcus aureus no 2
[10] = 8 g/l, stool A, Staphylococcus aureus No. 1
[11] = 8 g/l, stool B, Staphylococcus aureus no 2

Substance: castanospermine
- Colonies coloration ([1]; 1 g/l, stool A): 0
- Colonies coloration ([1]; 1 g/l, stool B): 0
- Colonies coloration ([1]; 2 g/l, stool A): 0
- Colonies coloration ([1]; 2 g/l, stool B): 0
- Colonies coloration ([1]; 4 g/l, stool A): 0
- Colonies coloration ([1]; 4 g/l, stool B): 0
- Colonies coloration ([1]; 8 g/l, stool A): 0
- Colonies coloration ([1]; 8 g/l, stool B): 0
- Enzymes originating from the bacteria ([2]; Staphylococcus aureus colonies, summary in words): not inhibited
- Colonies coloration [2, 4]: 2
- Colonies coloration [2, 5]: 2
- Colonies coloration [2, 6]: 2
- Colonies coloration [2, 7]: 2
- Colonies coloration [2, 8]: 2
- Colonies coloration [2, 9]: 2
- Colonies coloration [2, 10]: 1
- Colonies coloration [2, 11]: 1
- Deposit coloration [3, 4]: 2
- Deposit coloration ([3]; 1 g/l, stool A, no strain): 1
- Deposit coloration [3, 5]: 2
- Deposit coloration ([3]; 1 g/l, stool B, no strain): 0.5
- Deposit coloration [3, 6]: 1
- Deposit coloration ([3]; 2 g/l, stool A, no strain): 1
- Deposit coloration [3, 7]: 1
- Deposit coloration ([3]; 2 g/l, stool B, no strain): 0.5
- Deposit coloration [3, 8]: 1
- Deposit coloration ([3]; 4 g/l, stool A, no strain): 0.5
- Deposit coloration [3, 9]: 0.5
- Deposit coloration ([3]; 4 g/l, stool B, no strain): 0
- Deposit coloration [3, 10]: 1
- Deposit coloration ([3]; 8 g/l, stool A, no strain): 0
- Deposit coloration [3, 11]: 0
- Deposit coloration ([3]; 8 g/l, stool B, no strain): 0
- Aspecific enzymatic reactions due to the presence of free enzymes ([3]; stools, Staphylococcus aureus identification, summary in words): greatly inhibited
